From patent US6737383B1, “Herbicidal oxadiazolidines” (priority 1999, dated 2004)

Experiments:
velvetleaf = test: Test B pre/postemergence velvetleaf; type: in vivo, Abutilon theophrasti
Method in brief: (§1)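 Herbicidal effect was estimated by eye on a ten-point control scale after plants spent twelve to sixteen days in a greenhouse following soil or foliar treatment. Foliar sprays targeted plants at one to four leaves; all doses were formulated in a non-phytotoxic solvent with surfactant.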

wild oat = test: Test B pre/postemergence wild oat; type: in vivo, Avena fatua
Method in brief: as §1

sugar beet = test: Test B pre/postemergence sugar beet; type: in vivo, Beta vulgaris
Method in brief: as §1

blackgrass = test: Test B pre/postemergence blackgrass; type: in vivo, Alopecurus myosuroides
Method in brief: as §1

giant foxtail = test: Test B pre/postemergence giant foxtail; type: in vivo, Setaria faberii
Method in brief: as §1

morningglory = test: Test B pre/postemergence morningglory; type: in vivo, Ipomoea hederacea
Method in brief: as §1

wheat = test: Test B pre/postemergence wheat; type: in vivo, Triticum aestivum
Method in brief: as §1

corn = test: Test B pre/postemergence corn; type: in vivo, Zea mays
Method in brief: as §1

purple nutsedge = test: Test B pre/postemergence purple nutsedge; type: in vivo, Cyperus rotundus
Method in brief: as §1

soybean = test: Test B pre/postemergence soybean; type: in vivo, Glycine max
Method in brief: as §1

rape = test: Test B pre/postemergence rape; type: in vivo, Brassica napus
Method in brief: as §1

crabgrass = test: Test B pre/postemergence crabgrass; type: in vivo, Digitaria sanguinalis
Method in brief: as §1

pigweed = test: Test B pre/postemergence pigweed; type: in vivo, Amaranthus retroflexus
Method in brief: as §1

bedstraw = test: Test B pre/postemergence bedstraw; type: in vivo, Galium aparine
Method in brief: as §1

cocklebur = test: Test B pre/postemergence cocklebur; type: in vivo, Xanthium strumarium
Method in brief: as §1

surinam grass = test: Test B pre/postemergence surinam grass; type: in vivo, Brachiaria decumbens
Method in brief: as §1

[1] = Postemergence, Rate 62 g/ha, scale 0 to 10, 0 is no effect, 10 is complete control
[2] = Postemergence, Rate 500 g/ha, scale 0 (no effect) to 10 (complete control)
[3] = Rate 62 g/ha, Preemergence, scale 0 to 10
[4] = Rate 125 g/ha, Preemergence, scale 0 to 10 (0 no effect, 10 complete control)
[5] = Rate 250 g/ha, Postemergence, scale 0 to 10, 0 is no effect, 10 is complete control
[6] = Rate 500 g/ha, Preemergence, scale 0 to 10 (0 no effect, 10 complete control)
[7] = Postemergence, Rate 125 g/ha, scale of 0 to 10 where 0 is no effect and 10 is complete control
[8] = Preemergence, Rate 250 g/ha, scale 0 (no effect) to 10 (complete control)

CC(C)N(C(=O)n1oc(=O)n(CCCCCl)c1=O)c1ccccc1 [Compound 792]
Plant response rating, Velvetleaf (velvetleaf; [1]): 0 | Velvetleaf plant response rating (velvetleaf; [2]): 7 | Velvetleaf plant response rating (velvetleaf; [3]): 0 | Velvetleaf plant response rating (velvetleaf; [4]): 3 | Velvetleaf plant response rating (velvetleaf; [5]): 6 | Velvetleaf plant response rating (velvetleaf; [6]): 5 | Plant response rating, Wild oats (wild oat; [1]): 0 | Wild oats plant response rating (wild oat; [2]): 6 | Wild oats plant response rating (wild oat; [3]): 0 | Wild oats plant response rating (wild oat; [4]): 0 | Wild oats plant response rating (wild oat; [5]): 2 | Plant response rating, Sugarbeets (sugar beet; [1]): 0 | Sugarbeets plant response rating (sugar beet; [2]): 2 | Sugarbeets plant response rating (sugar beet; [3]): 0 | Sugarbeets plant response rating (sugar beet; [4]): 3 | Sugarbeets plant response rating (sugar beet; [5]): 2 | Plant response rating, Blackgrass (blackgrass; [1]): 4 | Blackgrass plant response rating (blackgrass; [7]): 7 | Blackgrass plant response rating (blackgrass; [2]): 7 | Blackgrass plant response rating (blackgrass; [8]): 8 | Blackgrass plant response rating (blackgrass; [3]): 1 | Blackgrass plant response rating (blackgrass; [4]): 4 | Plant response rating, Giant foxtail (giant foxtail; [1]): 2 | Giant foxtail plant response rating (giant foxtail; [7]): 9 | Giant foxtail plant response rating (giant foxtail; [2]): 9 | Giant foxtail plant response rating (giant foxtail; [8]): 10 | Giant foxtail plant response rating (giant foxtail; [3]): 10 | Giant foxtail plant response rating (giant foxtail; [4]): 10 | Giant foxtail plant response rating (giant foxtail; [5]): 9 | Giant foxtail plant response rating (giant foxtail; [6]): 10 | Plant response rating, Morningglory (morningglory; [1]): 6 | Morningglory plant response rating (morningglory; [7]): 7 | Morningglory plant response rating (morningglory; [2]): 10 | Morningglory plant response rating (morningglory; [3]): 0 | Morningglory plant response rating (morningglory; [4]): 0 | Morningglory plant response rating (morningglory; [5]): 10 | Morningglory plant response rating (morningglory; [6]): 0 | Plant response rating, Wheat (wheat; [1]): 0 | Wheat plant response rating (wheat; [2]): 3 | Wheat plant response rating (wheat; [3]): 0 | Wheat plant response rating (wheat; [4]): 0 | Wheat plant response rating (wheat; [5]): 1 | Plant response rating, Corn (corn; [1]): 0 | Corn plant response rating (corn; [7]): 1 | Corn plant response rating (corn; [2]): 3 | Corn plant response rating (corn; [8]): 4 | Corn plant response rating (corn; [3]): 0 | Corn plant response rating (corn; [4]): 2 | Corn plant response rating (corn; [5]): 2 | Corn plant response rating (corn; [6]): 4 | Plant response rating, Nutsedge (purple nutsedge; [1]): 0 | Nutsedge plant response rating (purple nutsedge; [7]): 0 | Nutsedge plant response rating (purple nutsedge; [2]): 0 | Nutsedge plant response rating (purple nutsedge; [3]): 0 | Nutsedge plant response rating (purple nutsedge; [4]): 0 | Nutsedge plant response rating (purple nutsedge; [5]): 0 | Nutsedge plant response rating (purple nutsedge; [6]): 0 | Plant response rating, Soybean (soybean; [1]): 4 | Soybean plant response rating (soybean; [2]): 7 | Soybean plant response rating (soybean; [3]): 0 | Soybean plant response rating (soybean; [4]): 0 | Soybean plant response rating (soybean; [5]): 5 | Soybean plant response rating (soybean; [6]): 0 | Plant response rating, Rape (rape; [1]): 3 | Rape plant response rating (rape; [7]): 3 | Rape plant response rating (rape; [2]): 7 | Rape plant response rating (rape; [3]): 0 | Rape plant response rating (rape; [4]): 0 | Rape plant response rating (rape; [5]): 7 | Plant response rating, Crabgrass (crabgrass; [1]): 2 | Crabgrass plant response rating (crabgrass; [7]): 9 | Crabgrass plant response rating (crabgrass; [2]): 9 | Crabgrass plant response rating (crabgrass; [8]): 10 | Crabgrass plant response rating (crabgrass; [3]): 10 | Crabgrass plant response rating (crabgrass; [4]): 10 | Crabgrass plant response rating (crabgrass; [6]): 10 | Plant response rating, Redroot pigweed (pigweed; [1]): 0 | Redroot pigweed plant response rating (pigweed; [7]): 6 | Redroot pigweed plant response rating (pigweed; [3]): 7 | Redroot pigweed plant response rating (pigweed; [4]): 9 | Redroot pigweed plant response rating (pigweed; [5]): 6 | Bedstraw plant response rating (bedstraw; [7]): 7 | Bedstraw plant response rating (bedstraw; [8]): 4 | Bedstraw plant response rating (bedstraw; [3]): 0 | Bedstraw plant response rating (bedstraw; [4]): 0 | Plant response rating, Cocklebur (cocklebur; [1]): 0 | Cocklebur plant response rating (cocklebur; [7]): 1 | Cocklebur plant response rating (cocklebur; [2]): 3 | Cocklebur plant response rating (cocklebur; [8]): 0 | Cocklebur plant response rating (cocklebur; [3]): 0 | Cocklebur plant response rating (cocklebur; [5]): 3 | Cocklebur plant response rating (cocklebur; [6]): 0 | Plant response rating, B. signalgrass (surinam grass; [1]): 0 | B. signalgrass plant response rating (surinam grass; [7]): 0 | B. signalgrass plant response rating (surinam grass; [8]): 9 | B. signalgrass plant response rating (surinam grass; Rate 62 g/ha, Preemergence, scale 0 (no effect) to 10 (complete control)): 0 | B. signalgrass plant response rating (surinam grass; [4]): 0 | B. signalgrass plant response rating (surinam grass; [5]): 0 | B. signalgrass plant response rating (surinam grass; Rate 500 g/ha, Postemergence, scale 0 to 10, 0 is no effect, 10 is complete control): 2
